Experimental findings from patent US20040171795A1, “Novel peptides” (priority 2000, published 2004) are described below.

Where no end group is shown, it is not given here.

A short description of data set [1]: Evaluation of toxicity of the peptide, tail vein administration. Format: in vivo. The following applies: female BALB/c mouse, 5 mg/kg. Here is the method:
The peptide of the present invention was administered to a mouse from its tail vein to thereby evaluate its toxicity. The mouse used was a female BALB/c mouse of 5 week old, and the peptide was used at a dose of 5 mg/kg.

Data set [2] can be described thus: Affinity by surface plasmon resonance (Biacore 2000), flow cell 2. The following applies: SPR, HPA chip, 0.1 mg/mL BSA; compared with flow cell 1. It counts as binding. Here is the method: (§1) The specific affinity of the peptide for phosphatidyl serine was evaluated by means of surface plasmon resonance (SPR) using Biacore 2000 (manufactured by Biacore). To be more specific, phosphatidyl choline was immobilized on flow cell 1, and 50% of phosphatidyl serine and 50% of phosphatidyl choline were immobilized on flow cell 2 of HPA chip (manufactured by Biacore), and ability of the peptide to bind to the phospholipid was evaluated in the presence of 0.1 mg/mL BSA to thereby evaluate the affinity.
For orientation: In SPR one partner is held on a chip, and binding of the other changes the refractive index at the surface.

Data set [3] is described as follows: Affinity by surface plasmon resonance (Biacore 2000), flow cell 1. Format: binding. The following applies: SPR, HPA chip, 0.1 mg/mL BSA. Here is the method:
as §1

Data set [4] concerns cell (Vero, T24 or A549 of Example 9; not given). As to the kind of experiment: Nucleic acid-introducing ability, luciferase-expressing plasmid (procedure of Example 9). It counts as cell-based. The following applies: procedure of Example 9, luciferase-expressing plasmid. From the text:
A cell line established from monkey kidney (Vero cell) and a human bladder cancer cell (T24 cell) purchased from American Type Culture Collection (ATCC) and human lung cancer cell (A549 cell) purchased from Dainippon Pharmaceutical were inoculated on a 24 well culture plate (manufactured by NALGEN NUNC) at 1×10^5 cells/well. Vero cell and A549 cell were cultivated in DMEM (manufactured by Life Technologies Oriental) supplemented with 10% fetal bovine serum (hereinafter referred to as FBS, manufactured by NICHIREI), and T24 cell was cultivated in McCoy's 5a (manufactured by Life Technologies Oriental) supplemented with 10% FBS in 5% CO2 atmosphere at 37° C. for 24 hours. After removing the medium, opti-MEM (manufactured by Life Technologies Oriental) prepared to have the concentration of the luciferase-expressing plasmid prepared in Example 7 of 1 μg/mL and the concentration of the peptide prepared in Example 1 of 1.25, 2.5, or 5 μM was added, and the cells were cultivated for 5 hours. Next, in the case of Vero cell and A549 cell, the culture medium was replaced with DMEM supplemented with 10% FBS, and in the case of T24 cell, the medium was replaced with McCoy's 5a supplemented with 10% FBS, and cultivation was continued in 5% CO2 atmosphere and at 37° C. for another 24 hours. The luciferase activity expressed in the cell was then measured by the method instructed in luciferase assay system (manufactured by Promega). To be more specific, the cells were washed with phosphate-buffered saline (hereinafter referred to as PBS, manufactured by SIGMA), and the cells were lyzed with Passive Lysis Buffer attached to the kit. 20 μL of this cell lysate and 100 μL of the Luciferase Assay Reagent II attached to the kit was added to a fluorescence-measuring plate (Microlite™ 1 plate, manufactured by Dynatech), and after mixing, fluorescence was measured for 1 second by using a multilabel counter (ARVO™ SY1420 MULTILABEL COUNTER, manufactured by Wallac Beltold.
Concentration of the protein in the cell lysate was measured by mixing 8 μL of the cell lysate and 200 μL of the protein assay solution (manufactured by Biorad) with 792 μL of ultrapure water in a disposable cuvette (UV fluorescent cuvette A204X, manufactured by Funakoshi), allowing the mixture to stand for 5 minutes at room temperature, and measuring the absorption at 595 nm with a spectrophotometer (DU640, manufactured by Beckman). Bovine serum albumin (BSA) was used for the standard protein. By using the thus obtained results, count per 1 second per 1 mg of protein of the cell lysate was calculated to thereby use the count as the luciferase activity, and the highest count in the three conditions of different peptide concentration was designated the gene-introducing ability of the peptide.
It is to be noted that the nucleic acid-introducing ability was classified as described below on the bases of the fluorescent count per 1 mg of protein per 1 second (cps/mg protein).

Data set [5] in a line: Measurement of CD spectrum. It counts as physicochemical. The following applies: 5 mM SDS, 10 mM phosphate buffer pH 7, 50 mM NaCl, 35° C. Here is the method: The peptide dissolved in 10 mM phosphate buffer (pH=7) containing 50 mM NaCl was evaluated for its CD spectrum in the presence and in the absence of 5 mM SDS by using a circular dichroism spectrophotometer (J-500A, manufactured by JASCO). The cell length was 1 mm. The measurement was conducted at 35° C. for 6 times in total. FIGS. 7 to 9 are respectively views showing mean residue ellipticity in CD spectroscopy of the peptide of SEQ ID NO:1, the peptide of SEQ ID NO:4 and the peptide of SEQ ID NO:16. As evident in FIGS. 7 to 9, the mean residue ellipticity obtained in the presence of SDS was the so called W curve and local minimums were found in the areas at the wavelength of 205 to 210 nm and 220 to 225 nm, and α-helix structure was thereby confirmed.

With LARLLARLLARLLRALLRALLRAL [SEQ ID NO:27], the “toxicity after tail vein administration” value in data set [1] is given as “died immediately after the administration”.

“SEQ ID NO:25: comparative peptide, same amino acid composition as SEQ ID NO:1 but an utterly random amino acid sequence (TIRYRPSHQIRLRAVLHLWIRYRPSHQIRLRAVLHWS; synthetic peptide using an automatic peptide synthesizer) [reference compound]”: the “binding to flow cell 2 (50% phosphatidyl serine, 50% phosphatidyl choline)” value in data set [2] is “no binding”. Besides, the “binding to flow cell 1 (phosphatidyl choline)” value in data set [3] is “no binding”. The “ability of introducing the nucleic acid into a cell” value in data set [4] is on record as “neither the nucleic acid-introducing ability”. The “α-helix structure in CD spectrum in the presence of SDS” value in data set [5] is recorded as “no α-helix structure is found”.
